The subject of one data set is common cockroaches. The experiment in a line: Test I: insecticidal efficacy of sprayed glass plates after 24 hours, one minute contact, common cockroaches. It is filed as in vivo, Blatta orientalis. The conditions noted are these: compared with Dioxacarb. How it is done: After a standing time of 24 hours, tests to determine insecticidal efficacy were carried out on common cockroaches, these being placed on the treated face of the glass plate for one minute, and then transferred for observation to ventilated glass jars. […] The proportions recorded are shown below.

The conditions of data set [1]: at 25° C.
A short description of data set [2]: Dissolution capacity of diluents/solvents for Dioxacarb and Arprocarb. Type of data set: physicochemical.

Where two headings read alike, the source gives them in different places. Some results are limits rather than exact numbers.

As to `CNC(=O)Oc1ccccc1OC(C)C` [Arprocarb, 2-isopropoxyphenyl N-methyl-carbamate], in the data set with common cockroaches, the “insecticidal behaviour in words” value is on record as “behaves exactly as Dioxacarb”.

As to `CCCCCCCCCCCCCC(=O)OC(C)C` [Isopropylmyristate], the figures for the Vapour pressure result in data set [1] (listed as Isopropyl myristate) and in data set [1] (listed as isopropylmyristate) were “ca. 0.001 Torr” and under 0.005 Torr, respectively. In addition, in data set [2] (at 20° C, solute Arprocarb), the “Dissolution capacity for ARPROCARB” value is recorded as 1.3 weight %. Moreover, in data set [2] (at 20° C, solute Arprocarb, footnotes), the “Dissolving capacity for Arprocarb” value turned out to be 1.3%. Further, the “Dissolution capacity for DIOXACARB” value in data set [2] (at 20° C, solute Dioxacarb) turned out to be 0.3 weight %. Further, the “Dissolving capacity for Dioxacarb” value in data set [2] (at 20° C, solute Dioxacarb) is 0.3%.

For the molecule `ClC(Cl)Cl` [Trichloromethane], the Vapour pressure in data set [1] and in data set [1] (listed as Chloroform) was 194 Torr each time. Also, the “Dissolution capacity for DIOXACARB” value in data set [2] amounted to 34 weight %. Besides, in data set [2], the “Dissolving capacity for Dioxacarb” value was determined as 34%.

In data set [1], `CC(Cl)(Cl)Cl` [1.1.1-Trichloro-ethane] had a Vapour pressure of 121 Torr. Moreover, in data set [2] (at 20° C, solute Dioxacarb), the “Dissolution capacity for DIOXACARB” value is listed as 2.3 weight % and the “Dissolving capacity for Dioxacarb” value is reported as 2.3%.

Consider `CCCCCl` [1-Chlorobutane], for which the Vapour pressure in data set [1] is given as 102 Torr. For the same molecule, in data set [2] (at 20° C, solute Dioxacarb), the “Dissolution capacity for DIOXACARB” value is recorded as 2 weight % and the “Dissolving capacity for Dioxacarb” value came out at 2%.

The molecule `COCCO` [2-Methoxyethanol] had a Vapour pressure in data set [1] of 8.6 Torr. In data set [2], the “Dissolution capacity for DIOXACARB” value was determined as 15 weight % and the “Dissolving capacity for Dioxacarb” value was “about 15%”.

`CCCCCCCC(=O)O` [Octanoic acid]: in data set [1], the Vapour pressure was found to be 0.002 Torr. In data set [2] (at 20° C, solute Dioxacarb), the “Dissolution capacity for DIOXACARB” value turned out to be 1.5 weight %.

With `CCC(C)OC(C)=O` (stereo not drawn) [sec. Butylacetate], in data set [1], the Vapour pressure was 26 Torr. The “Dissolution capacity for DIOXACARB” value in data set [2] (at 20° C, solute Dioxacarb) is 6 weight %.

Take `C[N+](=O)[O-]` [Nitromethane]: the Vapour pressure in data set [1] is listed as 34 Torr. Besides, in data set [2] (at 20° C, solute Dioxacarb), the “Dissolution capacity for DIOXACARB” value stood at 27.5 weight % and the “Dissolving capacity for Dioxacarb” value is reported as 27.5%.

Source of the values: patent publication US4067990A, “Process for the preparation of insecticidal compositions based on carbamic esters” (Airwick Industries, Inc., priority 1971, dated 1978).
